Laboratory results from a melting point compilation (Tetko et al.; mined from patent text by program, amines drawn as free bases though some values may be those of a salt).

Q: For O=C1CCC(N2Cc3cc(CNC(=O)Nc4ccc(SC(F)(F)F)cc4)ccc3C2=O)C(=O)N1 (centres undefined), which melting point is on record?
A: 218 to 220 °C

Q: Which melting point does the source give for CN(C)CCNC(=O)Nc1ccccc1 here?
A: 141 to 142 °C

Q: Which melting point does the source give for CC(C)(C)c1nc2cc(N3CCCCC3)c(NC(N)=S)cc2s1 here?
A: 228 to 232 °C

Q: With COCC(C)Nc1cc(-c2ncnc(Nc3cccc(Cl)c3)n2)ccn1 (centres undefined) as the molecule, how does the melting point read?
A: 149 to 151 °C

Q: With Cn1nc(C2CCN(CCn3c(=O)[nH]c4ccccc4c3=O)CC2)c2ccc(F)cc21 as the molecule, how does the melting point read?
A: 250 °C

Q: For Cc1oc(-c2ccccc2)nc1COc1cc(CCl)on1, which melting point is on record?
A: 105 to 106 °C

Q: For Cn1nc(C#N)c(Nc2ccccc2[N+](=O)[O-])n1, which melting point is on record?
A: 144 to 145 °C

Q: For O=C(O)COc1ccc(-c2c3ccccc3cc3sc4ccccc4c23)cc1I, which melting point is on record?
A: 248 to 249 °C

Q: With CCOC(=O)c1c(Cl)nc2ccc(Br)cc2c1Cl as the molecule, how does the melting point read?
A: 120 to 121 °C

Q: With Cc1c(O[Si](C)(C)C(C)(C)C)cc(N2C(=O)c3ccccc3C2=O)cc1C(=O)OCc1ccc([N+](=O)[O-])cc1 as the molecule, how does the melting point read?
A: 125 to 127 °C

Q: Which melting point does the source give for COc1cccc2sc(C3(O)CCN(C(=O)OC(C)(C)C)C(C)C3)cc12 (centres undefined) here?
A: 73 to 76 °C

Q: For Clc1cncc(-n2cccc2)c1, which melting point is on record?
A: 70.5 to 72 °C

Q: Which melting point does the source give for O=C(O)CNC(=O)[C@H]1CC[C@H](C(=O)N2CCN(C3CCNCC3)CC2)CC1 here?
A: 260 to 270 °C

Q: For COC(=O)Cc1c(C(=O)OC)ccn1CCCl, which melting point is on record?
A: 110 to 111 °C

Q: Which melting point does the source give for CCCCS(=O)(=O)Nc1ccc(OCc2ccc3ccccc3n2)c(C#N)c1 here?
A: 158 to 160 °C

Q: Which melting point does the source give for COc1cccc2c(=O)[nH]ccc12 here?
A: 215 to 217 °C

Q: Which melting point does the source give for O=C(O)C(=O)N1CCc2cc(S(=O)(=O)N3CCN(c4cccc(Cl)c4)CC3)ccc21 here?
A: 219 to 220 °C

Q: For Cn1nc(C(F)(F)F)c(CS(=O)C2=NOC(C)(C)C2)c1OC(F)F (centres undefined), which melting point is on record?
A: 112 to 114 °C

Q: For O=C(NCCSCc1cccc(Br)c1)c1c(Cl)cccc1Cl, which melting point is on record?
A: 74 to 76 °C

Q: Which melting point does the source give for Brc1ccc2scnc2c1 here?
A: 104 to 106 °C

Q: For CCOc1nn(C(=O)NS(=O)(=O)Cl)c(=O)n1C, which melting point is on record?
A: 106 °C

Q: With CNCc1nnc(-c2ccc3occ(-c4cccc(OC(F)(F)F)c4)c3c2)o1 as the molecule, how does the melting point read?
A: 65 to 66 °C

Q: Which melting point does the source give for CN1CCC(C2Oc3cc(Cl)ccc3Cn3c(Cl)ccc32)CC1 (centres undefined) here?
A: 132 to 140 °C

Q: Which melting point does the source give for COc1ccc(/C=C/C(=O)C2C(=O)CC(c3ccc(OC)cc3)C([N+](=O)[O-])C2C2CCCCC2)cc1 (centres undefined) here?
A: 203 to 205 °C

Q: For O=[N+]([O-])c1cc(-c2csc(-c3cccnc3)n2)cc(O)c1O, which melting point is on record?
A: 279 to 281 °C

Q: Which melting point does the source give for CCOC(=O)c1cccc2c1Nc1ccc(C(=O)c3ccccc3)cc1N2C here?
A: 139 to 141 °C

Q: With COC(=O)C1Cc2cc3c(cc2C(c2ccc([N+](=O)[O-])cc2)=NN1)OCO3 (centres undefined) as the molecule, how does the melting point read?
A: 161 to 164 °C

Q: With COC(=O)c1ccccc1Sc1c(O)c2c(Cl)cc(Cl)cc2[nH]c1=O as the molecule, how does the melting point read?
A: 158 to 160 °C

Q: For N#Cc1c(N2CCc3ccccc3CC2)nc2[nH]ccn2c1=O, which melting point is on record?
A: > 200 °C

Q: Which melting point does the source give for CCc1cc([N+](=O)[O-])c(N)c([N+](=O)[O-])c1C here?
A: 101 to 102 °C

Q: With CCOc1cc(C(C)=O)ccc1OCCCN1CCC(c2noc3cc(F)ccc23)CC1 as the molecule, how does the melting point read?
A: 112 to 114 °C

Q: Which melting point does the source give for COc1ccc(-c2ccc3ccccc3c2C(=O)N(C)C)cc1 here?
A: 194 to 195 °C

Q: With OCc1ccc(-c2cn([C@H]3CN4CCC3CC4)nn2)cc1 as the molecule, how does the melting point read?
A: 200 °C

Q: With Cc1cccc(C)c1NC(=O)CCC1CCC(=O)N1 (centres undefined) as the molecule, how does the melting point read?
A: 206 to 208 °C

Q: With O=C(CC1CCCC1)NC[C@H]1CN(c2ccc3c(c2)CCCc2cnn(C(=O)CC4CCCC4)c2-3)C(=O)O1 as the molecule, how does the melting point read?
A: 165 to 167 °C

Q: For COc1ccc(C2NCc3c2[nH]c2ccccc2c3=O)cc1OC (centres undefined), which melting point is on record?
A: 223 to 225 °C

Q: For CC(c1ccc(-c2ccc(OCc3nc4ccccc4s3)cc2)c(F)c1)N(O)C(N)=O (centres undefined), which melting point is on record?
A: 185 to 186 °C

Q: Which melting point does the source give for NS(=O)(=O)c1ccc(NC(=O)Nc2ccc(Br)cc2)cc1 here?
A: 269 to 271 °C

Q: Which melting point does the source give for C=Cc1cn(S(=O)(=O)c2ccc(C)cc2)c2ccc(C#N)cc12 here?
A: 134 to 135 °C
